# Measured values: ChEMBL document CHEMBL1201862, “PubChem BioAssay data set” (2004)
#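 Compound exposure: 48 hours, 5 concentrations, 96-well plates. Abbreviation: GI50, concentration required for 50% inhibition of growth.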 The source made the active and inactive calls. Rule as the data show it: active = GI50 up to about 1.1 µM and inactive = higher.
# Legend:
# Assay in all cases: NCI-60 cell line screen, 48 h
# [1] = tested on: SK-MEL-2
# [2] = tested on: SF-295
# [3] = tested on: UACC-62
# [4] = tested on: HCT-116
# [5] = tested on: MOLT-4
# [6] = tested on: SK-OV-3
# [7] = tested on: OVCAR-8
# [8] = tested on: HCC 2998
# [9] = tested on: SF-539
# [10] = tested on: Malme-3M
# [11] = tested on: SNB-78
# [12] = tested on: HL-60
# [13] = tested on: SK-MEL-28
# [14] = tested on: KM-20L2
# [15] = tested on: IGROV-1
# [16] = tested on: SK-MEL-5
# [17] = tested on: HOP-62
# [18] = tested on: NCI-H23
# [19] = tested on: RXF 393
# [20] = tested on: CCRF-CEM
# [21] = tested on: TK-10
# [22] = tested on: NCI-H460
# [23] = tested on: LXFL 529
# [24] = tested on: SF-268
# [25] = tested on: UACC-257
# [26] = tested on: A498
# [27] = tested on: COLO 205
# [28] = tested on: EKVX
# [29] = tested on: XF498
# [30] = tested on: HT-29
# [31] = tested on: NCI-H522
# [32] = tested on: CAKI-1
# [33] = tested on: A549
# [34] = tested on: K562
# [35] = tested on: RPMI-8226
# [36] = tested on: KM12
# [37] = tested on: M14
# [38] = tested on: HCT-15
# [39] = tested on: SNB-19
# [40] = tested on: HOP-18
# [41] = tested on: ACHN
# [42] = tested on: SN12C
# [43] = tested on: OVCAR-5
# [44] = tested on: U-251
# [45] = tested on: 786-0
# [46] = tested on: SNB-75
# [47] = tested on: DMS-273
# [48] = tested on: DMS-114
# [49] = tested on: HOP-92
# [50] = tested on: OVCAR-3
# [51] = tested on: OVCAR-4
# [52] = tested on: M19-MEL
# [53] = tested on: SW-620
# [54] = tested on: DLD-1
# [55] = tested on: LOX IMVI
# [56] = tested on: UO-31
# [57] = tested on: NCI-H226
# [58] = tested on: SR
structure (smiles),measurement,setting,value
C=C(C(=C)P(=S)(c1ccccc1)c1ccccc1)P(=S)(c1ccccc1)c1ccccc1,GI50,[1],> 100 µM (inactive)
same,GI50,[2],> 100 µM (inactive)
same,GI50,[3],> 100 µM (inactive)
same,GI50,[4],> 100 µM (inactive)
same,GI50,[5],> 100 µM (inactive)
same,GI50,[6],> 100 µM (inactive)
same,GI50,[7],> 100 µM (inactive)
same,GI50,[8],> 100 µM (inactive)
same,GI50,[9],> 100 µM (inactive)
same,GI50,[10],74.8 µM (inactive)
same,GI50,[11],> 100 µM (inactive)
same,GI50,[12],7.33 µM (inactive)
same,GI50,[13],> 100 µM (inactive)
same,GI50,[14],> 100 µM (inactive)
same,GI50,[15],> 100 µM (inactive)
same,GI50,[16],> 100 µM (inactive)
same,GI50,[17],> 100 µM (inactive)
same,GI50,[18],> 100 µM (inactive)
same,GI50,[19],> 100 µM (inactive)
same,GI50,[20],> 100 µM (inactive)
same,GI50,[21],> 100 µM (inactive)
same,GI50,[22],> 100 µM (inactive)
same,GI50,[23],> 100 µM (inactive)
same,GI50,[24],> 100 µM (inactive)
same,GI50,[25],> 100 µM (inactive)
same,GI50,[26],> 100 µM (inactive)
same,GI50,[27],> 100 µM (inactive)
same,GI50,[28],> 100 µM (inactive)
same,GI50,[29],73.6 µM (inactive)
same,GI50,[30],> 100 µM (inactive)
same,GI50,[31],> 100 µM (inactive)
same,GI50,[32],> 100 µM (inactive)
same,GI50,[33],> 100 µM (inactive)
same,GI50,[34],> 100 µM (inactive)
same,GI50,[35],8.75 µM (inactive)
same,GI50,[36],> 100 µM (inactive)
same,GI50,[37],> 100 µM (inactive)
same,GI50,[38],> 100 µM
same,GI50,[39],> 100 µM (inactive)
same,GI50,[40],> 100 µM (inactive)
same,GI50,[41],> 100 µM (inactive)
same,GI50,[42],> 100 µM (inactive)
same,GI50,[43],> 100 µM (inactive)
same,GI50,[44],> 100 µM (inactive)
same,GI50,[45],> 100 µM (inactive)
same,GI50,[46],45.5 µM (inactive)
same,GI50,[47],> 100 µM (inactive)
same,GI50,[48],35.2 µM (inactive)
same,GI50,[49],2.52 µM (inactive)
same,GI50,[50],> 100 µM (inactive)
same,GI50,[51],34.8 µM (inactive)
same,GI50,[52],> 100 µM (inactive)
same,GI50,[53],> 100 µM (inactive)
CC(=O)Nc1ccc(C(=O)NN2C(=O)C(Cl)C2c2cc(Br)cc(Br)c2O)cc1 (stereo not given),GI50,[1],> 100 µM (inactive)
same,GI50,[3],> 100 µM (inactive)
same,GI50,[4],> 100 µM (inactive)
same,GI50,[5],> 100 µM (inactive)
same,GI50,[6],> 100 µM (inactive)
same,GI50,[7],> 100 µM (inactive)
same,GI50,[8],> 100 µM (inactive)
same,GI50,[54],> 100 µM (inactive)
same,GI50,[9],> 100 µM (inactive)
same,GI50,[10],> 100 µM (inactive)
same,GI50,[12],> 100 µM (inactive)
same,GI50,[13],> 10 µM (inactive)
same,GI50,[14],> 100 µM (inactive)
same,GI50,[15],52.6 µM (inactive)
same,GI50,[16],> 100 µM (inactive)
same,GI50,[17],> 100 µM (inactive)
same,GI50,[18],> 100 µM (inactive)
same,GI50,[20],> 100 µM (inactive)
same,GI50,[22],> 100 µM (inactive)
same,GI50,[23],> 100 µM (inactive)
same,GI50,[24],> 100 µM (inactive)
same,GI50,[25],> 100 µM (inactive)
same,GI50,[55],> 100 µM (inactive)
same,GI50,[26],> 100 µM (inactive)
same,GI50,[27],> 100 µM (inactive)
same,GI50,[28],> 100 µM (inactive)
same,GI50,[29],> 100 µM (inactive)
same,GI50,[31],> 100 µM (inactive)
same,GI50,[32],> 100 µM (inactive)
same,GI50,[33],> 100 µM (inactive)
same,GI50,[34],> 100 µM (inactive)
same,GI50,[35],> 100 µM (inactive)
same,GI50,[56],> 100 µM (inactive)
same,GI50,[36],> 100 µM (inactive)
same,GI50,[37],> 100 µM (inactive)
same,GI50,[38],> 100 µM
same,GI50,[39],> 100 µM (inactive)
same,GI50,[40],> 100 µM (inactive)
same,GI50,[41],> 100 µM (inactive)
same,GI50,[42],> 100 µM (inactive)
same,GI50,[43],> 100 µM (inactive)
same,GI50,[44],> 100 µM (inactive)
same,GI50,[45],> 100 µM (inactive)
same,GI50,[46],37.3 µM (inactive)
same,GI50,[47],> 100 µM (inactive)
same,GI50,[48],> 100 µM (inactive)
same,GI50,[49],> 100 µM (inactive)
same,GI50,[50],> 100 µM (inactive)
same,GI50,[57],> 100 µM (inactive)
same,GI50,[51],> 100 µM (inactive)
same,GI50,[52],> 100 µM (inactive)
same,GI50,[53],> 100 µM (inactive)
same,GI50,[58],> 100 µM (inactive)
CC1CC2OC(=O)C3CC(O)CC(=C23)[C@@]12C[C@@H](c1ccoc1)OC2=O (stereo not given in full),GI50,[1],> 100 µM (inactive)
same,GI50,[2],> 100 µM (inactive)
same,GI50,[3],> 100 µM (inactive)
same,GI50,[4],> 100 µM (inactive)
same,GI50,[5],> 100 µM (inactive)
same,GI50,[6],> 100 µM (inactive)
same,GI50,[7],> 100 µM (inactive)
same,GI50,[8],> 100 µM (inactive)
same,GI50,[54],> 100 µM (inactive)
same,GI50,[9],> 100 µM (inactive)
same,GI50,[10],> 100 µM (inactive)
same,GI50,[11],> 100 µM (inactive)
same,GI50,[12],> 100 µM (inactive)
same,GI50,[13],> 100 µM (inactive)
same,GI50,[14],> 100 µM (inactive)
same,GI50,[15],> 100 µM (inactive)
same,GI50,[16],> 100 µM (inactive)
same,GI50,[18],> 100 µM (inactive)
same,GI50,[19],> 100 µM (inactive)
same,GI50,[20],> 100 µM (inactive)
same,GI50,[21],> 100 µM (inactive)
same,GI50,[22],> 100 µM (inactive)
same,GI50,[23],> 100 µM (inactive)
same,GI50,[24],> 100 µM (inactive)
same,GI50,[25],> 100 µM (inactive)
same,GI50,[55],> 100 µM (inactive)
same,GI50,[27],> 100 µM (inactive)
same,GI50,[28],> 100 µM (inactive)
same,GI50,[29],> 100 µM (inactive)
same,GI50,[30],> 100 µM (inactive)
same,GI50,[31],> 100 µM (inactive)
same,GI50,[33],> 100 µM (inactive)
same,GI50,[34],> 100 µM (inactive)
same,GI50,[35],> 100 µM (inactive)
same,GI50,[56],> 100 µM (inactive)
same,GI50,[36],> 100 µM (inactive)
same,GI50,[37],> 100 µM (inactive)
same,GI50,[38],> 100 µM
same,GI50,[39],> 100 µM (inactive)
same,GI50,[40],> 100 µM (inactive)
same,GI50,[41],> 100 µM (inactive)
same,GI50,[42],> 100 µM (inactive)
same,GI50,[43],> 100 µM (inactive)
same,GI50,[44],> 100 µM (inactive)
same,GI50,[45],> 100 µM (inactive)
same,GI50,[46],> 100 µM (inactive)
same,GI50,[47],> 100 µM (inactive)
same,GI50,[49],> 100 µM (inactive)
same,GI50,[50],> 100 µM (inactive)
same,GI50,[57],> 100 µM (inactive)
same,GI50,[51],> 100 µM (inactive)
same,GI50,[52],> 100 µM (inactive)
same,GI50,[53],> 100 µM (inactive)
same,GI50,[58],> 100 µM (inactive)
